According to patent US20180193412A1, “Method of In Vivo Treatment” (Hexima Limited, priority 2015, published 2018):

Assays:
T. rubrum = test: Inhibition of growth of Trichophyton rubrum by plant defensins (microtitre A595 antifungal assay); assay type: cell-based; settings: ½ strength PDB, 30° C.
Method: (§1) The inhibitory effects of the plant defensins on the growth of Trichophyton rubrum, T. interdigitale, Microsporum fulvum and C. albicans (all obtained from the National Mycology Reference Centre, South Australia Pathology at the Women's and Children's Hospital, Adelaide, Australia) are measured essentially as described by Broekaert et al. (1990) FEMS Microbiol Lett 69:55-59.
(§2) Spores of T. rubrum, T. interdigitale and M. fulvum are isolated from sporulating fungus growing on ½ strength Sabouraud dextrose agar. Spores were removed from the plates by the addition of ½ strength potato dextrose broth (PDB). C. albicans cells are grown in Yeast Peptone Broth (YPD) for 16 h. Spore and cell concentrations are measured using a hemocytometer.
(§3) Antifungal assays are conducted in 96 well microtitre plates essentially as herein described. Wells are loaded with 20 μL of filter sterilized (0.22 Ξ m syringe filter, Millipore) defensin (10× stock for each final concentration) or water and 80 μL of 5×10^4 spores/mL (T. rubrum, T. interdigitale, M. fulvum) or 5,000 cells/mL (C. albicans) in ½ strength PDB. The plates are incubated at 30° C. Fungal growth is assayed by measuring optical density at 595 nm (A595) using a microtitre plate reader (SpectraMax Pro M2; Molecular Devices. Growth is allowed to proceed until the optical density (OD) of the fungus in the absence of any test defensin reached an OD of 0.2. Each test is performed in duplicate.

M. fulvum = test: Inhibition of growth of Microsporum fulvum by plant defensins (microtitre A595 antifungal assay); assay type: cell-based; settings: ½ strength PDB, 30° C., A595
Method: as §1, §2, §3

T. interdigitale = test: Inhibition of growth of T. interdigitale by plant defensins (microtitre A595 antifungal assay); assay type: cell-based, Trichophyton interdigitale; settings: ½ strength PDB, 30° C.
Method: as §1, §2, §3

T. albicans = test: Inhibition of growth of C. albicans by plant defensins, Example 1 (microtitre A595 antifungal assay); assay type: cell-based; settings: Table 3; ½ strength PDB, 30° C., A595
Method: as §1, §2, §3

C. albicans = test: Inhibition of growth of Candida albicans, Example 2 antifungal assay; assay type: cell-based; settings: Table 4; ½ strength PDB, 30° C., A595
Method: (§4) The inhibitory effects of the plant defensins on the growth of Candida albicans, Aspergillus fumigatus (obtained from the National Mycology Reference Centre, South Australia Pathology at the Women's and Children's Hospital, Adelaide, Australia), C. glabrata, C. tropicalis, A. flavus, A. niger, A. fumigants, Cryptococcus neoformans and C. gattii (obtained from Dee Carter, University of Sydney, New South Wales, Australia) are measured essentially as described by Broekaert et al. (1990) FEMS Microbiol Lett 69:55-59.
(§5) Spores of A. flavus. A. niger and A. fumigatus are isolated from sporulating fungus growing on ½ strength Sabouraud dextrose agar. Spores were removed from the plates by the addition of ½ strength potato dextrose broth (PDB). C. albicans, C. glabrata, C. tropicalis, C. neoformans and C. gattii cells are grown in Yeast Peptone Broth (YPD) for 16 h. Spore and cell concentrations are measured using a hemocytometer.
as §3, with “μm” for “Ξ m”, “(A. flavus, A. niger, A. fumigatus),” for “(T. rubrum, T. interdigitale, M. fulvum) or”, “albicans, C. glabrata, C. tropicalis) or 1×10^6 cells/mL (C. neoformans, C. gattii)” for “albicans)”

C. glabrata = test: Inhibition of growth of C. glabrata, Example 2 antifungal assay; assay type: cell-based; settings: ½ strength PDB, 30° C., A595
Method: as §4, §5
as §3, with “μm” for “Ξ m”, “(A. flavus, A. niger, A. fumigatus),” for “(T. rubrum, T. interdigitale, M. fulvum) or”, “albicans, C. glabrata, C. tropicalis) or 1×10^6 cells/mL (C. neoformans, C. gattii)” for “albicans)”

C. tropicalis = test: Inhibition of growth of C. tropicalis, Example 2 antifungal assay; assay type: cell-based; settings: ½ strength PDB, 30° C., A595
Method: as §4, §5
as §3, with “μm” for “Ξ m”, “(A. flavus, A. niger, A. fumigatus),” for “(T. rubrum, T. interdigitale, M. fulvum) or”, “albicans, C. glabrata, C. tropicalis) or 1×10^6 cells/mL (C. neoformans, C. gattii)” for “albicans)”

A. flavus = test: Inhibition of growth of A. flavus, Example 2 antifungal assay; assay type: cell-based; settings: ½ strength PDB, 30° C., A595
Method: as §4, §5
as §3, with “μm” for “Ξ m”, “(A. flavus, A. niger, A. fumigatus),” for “(T. rubrum, T. interdigitale, M. fulvum) or”, “albicans, C. glabrata, C. tropicalis) or 1×10^6 cells/mL (C. neoformans, C. gattii)” for “albicans)”

A. niger = test: Inhibition of growth of A. niger, Example 2 antifungal assay; assay type: cell-based; settings: ½ strength PDB, 30° C., A595
Method: as §4, §5
as §3, with “μm” for “Ξ m”, “(A. flavus, A. niger, A. fumigatus),” for “(T. rubrum, T. interdigitale, M. fulvum) or”, “albicans, C. glabrata, C. tropicalis) or 1×10^6 cells/mL (C. neoformans, C. gattii)” for “albicans)”

A. fumigatus = test: Inhibition of growth of Aspergillus fumigatus, Example 2 antifungal assay; assay type: cell-based; settings: ½ strength PDB, 30° C., A595
Method: as §4, §5
as §3, with “μm” for “Ξ m”, “(A. flavus, A. niger, A. fumigatus),” for “(T. rubrum, T. interdigitale, M. fulvum) or”, “albicans, C. glabrata, C. tropicalis) or 1×10^6 cells/mL (C. neoformans, C. gattii)” for “albicans)”

C. neoformans = test: Inhibition of growth of Cryptococcus neoformans, Example 2 antifungal assay; assay type: cell-based; settings: ½ strength PDB, 30° C., A595
Method: as §4, §5
as §3, with “μm” for “Ξ m”, “(A. flavus, A. niger, A. fumigatus),” for “(T. rubrum, T. interdigitale, M. fulvum) or”, “albicans, C. glabrata, C. tropicalis) or 1×10^6 cells/mL (C. neoformans, C. gattii)” for “albicans)”

C. gattii = test: Inhibition of growth of C. gattii, Example 2 antifungal assay; assay type: cell-based; settings: ½ strength PDB, 30° C., A595
Method: as §4, §5
as §3, with “μm” for “Ξ m”, “(A. flavus, A. niger, A. fumigatus),” for “(T. rubrum, T. interdigitale, M. fulvum) or”, “albicans, C. glabrata, C. tropicalis) or 1×10^6 cells/mL (C. neoformans, C. gattii)” for “albicans)”

E. coli = assay type: cell-based, Escherichia coli; settings: for IC50: Mueller-Hinton Broth, 37° C., 18 hours, up to 20 μM, read-out: IC50 against E. coli; for Inhibition of growth of E. coli: at the concentrations tested (0.3125-20 μM)
Method: (§6) A single E. coli or B. subtilis colony was used to inoculate 5 ml of Luria-Bertani media and grown overnight at 37° C. The following day, the optical density of the culture was measured and the bacteria diluted to an optical density at 600 nm (OD600) of 0.01 in Mueller-Hinton Broth. Diluted E. coli or B. subtilis were added to 96-well plates with defensins at concentrations of 20 μM, 10 μM, 5 μM, 2.5 μM, 1.25 μM, 0.625 μM or 0.3125 μM. Plates were read at OD595 to obtain time zero data points. Plates were incubated at 37° C. for 18 hours before reading again at OD595 to assess the amount of bacterial growth.

B. subtilis = test: Inhibition of the growth of Bacillus subtilis (OD595, 18 hours); assay type: cell-based; settings: for IC50: Mueller-Hinton Broth, 37° C., 18 hours, up to 20 μM, read-out: IC50 against B. subtilis; for Inhibition of growth of B. subtilis: at the concentrations tested (0.3125-20 μM)
Method: as §6

[1] = test system: Trichophyton rubrum, T. interdigitale, Microsporum fulvum and C. albicans; test: Inhibition assays of Example 1, summary across the range of fungal pathogens; assay type: cell-based; settings: summary of Table 3, at the concentrations tested
Method: as §1, §2, §3

Substance | IC50 against T. rubrum (T. rubrum) [µg/mL] | IC50 against M. fulvum (M. fulvum) [µg/mL] | IC50 against T. interdigitale (T. interdigitale) [µg/mL] | IC50 against T. albicans (T. albicans) [µg/mL] | IC50 against C. albicans (C. albicans) [µg/mL] | IC50 against C. glabrata (C. glabrata) [µg/mL] | IC50 against C. tropicalis (C. tropicalis) [µg/mL] | IC50 against A. flavus (A. flavus) [µg/mL] | IC50 against A. niger (A. niger) [µg/mL] | IC50 against A. fumigatus (A. fumigatus) [µg/mL] | IC50 against C. neoformans (C. neoformans) [µg/mL] | IC50 against C. gattii (C. gattii) [µg/mL] | IC50 (E. coli) [µM] | IC50 (B. subtilis) [µM] | Activity across the range of fungal pathogens [1] | Inhibition of growth of E. coli (E. coli) | Inhibition of growth of B. subtilis (B. subtilis)
HXL012: Class I plant defensin from Amaranthus retroflexus (RMCKAPSKLFRGMCGIRDSNCDSVCRAEGMAAGDCHGLRRRCICSRPC; HXL012 Amaranthus retroflexus) | 2 | 18 | 2 | 42 | 42 | >100 | 10 | 45 | 12.5 | 15 | 8 | 38 | > 20 | 20 | intermediate activity |  | 
NaD1: Solanaceous Class II plant defensin from Nicotiana alata (RECKTESNTFPGICITKPPCRKACISEKFTDGHCSKILRRCLCTKPC; NaD1 Nicotiana alata) | 8 | 5.3 | 10 | 20 | 20 | 14 | 2.5 | 20 | 16 | 8 | 3 | 5 | > 20 |  |  | did not inhibit the growth | did not inhibit the growth
HXL005: Class I plant defensin from Taraxcum kok-saghyz (KMCQTTSHAFSCVNDSGCSGSCEKQGFASGKCDGVRRRCTCYKKC; HXL005 Taraxcum kok-saghyz) | 3 | 5 | 3.5 | 22 | 22 | 11 | 12 | 25 | 7.5 | 11 | 5 | 14 | > 20 | > 20 | most effective | did not inhibit the growth | did not inhibit the growth
HXL004: Class I plant defensin from Nicotiana benthamiana (RTCESQSHRFKGLCFSRSNCASVCHTEGFNGGHCRGFRRRCFCTRHC; HXL004 Nicotiana benthamiana) | 27.5 | 12 | 19 | 20 | 20 | 20 | 5 | >100 | 45 | 20 | 7 | 20 | 2.5 | 2.6 | intermediate activity |  | 
HXL015: Class I plant defensin from Oryza sativa (RHCLSQSHRFKGMCVSSNNCANVCRTESFPDGECKSHGLERKCFCKKVC; HXL015 Oryza sativa) | 10 | 12.5 | 3.5 |  | 5 |  |  |  |  |  |  |  |  |  | intermediate activity |  | 
HXL035: Class I plant defensin from Picramnia pentandra (KVCTKPSKFFKGLCGFDRDCTVACKKEGLASGFCQNKGFFNVVCVCRKPC; HXL035 Picramnia pentandra) | 2 | 2 | 1 | 18 | 18 | 10 | 6 | 25 | 6 | 7.5 | 5 | 20 |  |  | most effective |  | 
